In article PMC4448982, “LP-925219 maximizes urinary glucose excretion in mice by inhibiting both renal SGLT1 and SGLT2” (Pharmacology Research & Perspectives, 2015):
Where two headings read alike, the source gives them in different places.

What was measured:
[1] = molecular target: T1, human SGLT2 (Homo sapiens, UniProt P31639); assay: Compound washout study, cells expressing human SGLT2
T1 sequence (P31639 1-672): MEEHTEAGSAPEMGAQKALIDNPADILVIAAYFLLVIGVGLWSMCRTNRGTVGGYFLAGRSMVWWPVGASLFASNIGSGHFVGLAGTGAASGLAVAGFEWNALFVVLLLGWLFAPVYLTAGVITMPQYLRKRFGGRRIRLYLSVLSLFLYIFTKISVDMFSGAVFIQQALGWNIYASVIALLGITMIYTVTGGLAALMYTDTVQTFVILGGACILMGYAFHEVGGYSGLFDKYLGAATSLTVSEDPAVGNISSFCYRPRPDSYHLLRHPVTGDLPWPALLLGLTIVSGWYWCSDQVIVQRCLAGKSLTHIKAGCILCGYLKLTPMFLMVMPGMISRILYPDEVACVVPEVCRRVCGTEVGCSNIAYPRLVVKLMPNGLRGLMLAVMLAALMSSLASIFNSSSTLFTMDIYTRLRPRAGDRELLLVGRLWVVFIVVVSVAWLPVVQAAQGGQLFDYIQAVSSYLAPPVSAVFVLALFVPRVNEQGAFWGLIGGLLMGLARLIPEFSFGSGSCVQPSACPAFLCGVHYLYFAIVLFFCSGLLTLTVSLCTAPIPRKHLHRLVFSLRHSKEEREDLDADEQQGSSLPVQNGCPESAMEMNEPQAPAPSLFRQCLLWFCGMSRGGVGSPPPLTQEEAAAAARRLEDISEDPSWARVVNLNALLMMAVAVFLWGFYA
From the text: Cells expressing human SGLT2 were studied using the above protocol. […] Cells expressing human SGLT2 were studied using the above protocol.

[2] = molecular target: T1, human SGLT2; assay: 14C-AMG uptake assay, HEK293 cells expressing human SGLT2; type: cell-based; set-up: expressed in transfected cells; conditions: mean ± SD
From the text: Methods for generating cell lines expressing mouse, rat, and dog SGLT1 and SGLT2 are published (Powell et al. [2013b], [2014]). Full-length coding sequence of human SGLT1 (NP_000334) and human SGLT2 (NP_003032.1) with an HA-tag at the N-terminus were cloned into the mammalian expression vector pIRESpuro2 (Clontech, Mountain View, CA). HEK293 cells (ATCC, Manassas, VA) were transfected with the pIRESpuro2 vector containing human SGLT1 or SGLT2 and bulk stable cell lines were selected in the presence of 0.5 μg/mL of puromycin.
Cell lines expressing SGLT1 or SGLT2 were plated into poly-D-lysine-coated 384-well plates, and culture overnight in cell growth medium. Cells were washed, and then incubated in uptake buffer ([…], […] KCl, […] CaCl2, […] MgCl2, […] HEPES/Tris, 1 mg/mL of bovine serum albumin, pH7.4) containing [^14C]α-methylglucopyranoside (^14C-AMG), a nonmetabolizable glucose analog specific for sodium-dependent glucose transporters (Wright and Turk [2004]). The inhibition of SGLT1 or SGLT2 was determined by measuring SGLT1/2-mediated ^14C-AMG uptake in the presence of increasing compound concentrations of LP-925219. […] Standard sigmoidal dose–response model curves were fitted, and the IC50 value was computed as the LP-925219 concentration that inhibited the ^14C-AMG uptake by 50% between baseline and maximum uptake.

[3] = Pharmacokinetics in mice (intravenous and oral); type: in vivo; conditions: mouse
Description: Adult male C57BL/6J mice (25–35 g) were maintained on chow diet, had free access to water and were conscious through the study. LP-925219 was delivered by bolus intravenous administration at 1 mg/kg or by oral gavage at a dose of 10 mg/kg; 0.1% Tween-80 served as vehicle. Following intravenous injection, serial blood samples were collected in Ethylenediaminetetraacetic acid-containing tubes through 6 h. Following oral administration, serial blood samples were collected through 24 h. The plasma fraction was immediately separated by centrifugation at 4°C, and then stored at −20°C until sample analysis. To quantify LP-925219 concentrations, plasma samples were extracted with acetonitrile-water-formic acid (80:20:0.1) containing verapamil as internal standard at a concentration of 1 μmol/L. Extracted samples were analyzed by LC/MS-MS using a Surveyor HPLC system with a TSQ triple quadrupole mass spectrometer coupled with an Electrospray ionization source (Thermo Fisher Scientific, Waltham, MA). XCalibur 2.0 SR2 software (Thermo Fisher Scientific) was used for instrument control and data calculation. A rapid LC gradient with ammonium acetate […] (pH ∼6) and acetonitrile was used. Calculations were made by normalizing the area counts of compound to the area counts of the internal standard (relative area counts).
All plasma concentration versus time data for LP-925219 were analyzed using noncompartmental analysis, either extravascular administration (for oral administration) or bolus IV administration (for intravenous administration), of Phoenix™ WinNonlin® (version 6.3, Pharsight, Inc. Mountain View, CA). The half-life during the terminal phase was calculated from the elimination rate constant (λ) determined by the linear regression analysis of the log-linear part of the plasma concentration curve. The LP-925219 AUC0–t was calculated using linear up/log down trapezoidal method up to the last measured concentration at time t (Ct). AUC0–∞ was calculated as AUC0–t + Ct/λ. Clearance (CL) was calculated by dose/AUC0–∞. Other pharmacokinetic parameters included plasma peak concentration (Cmax), the time of Cmax (Tmax) and volume of distribution at steady state (Vss). Oral bioavailability (%F) was calculated by the equation: %F = (AUC0–∞ PO/AUC0–∞ IV) × (Dose IV/Dose PO).

[4] = male, C57BL/6J, plasma, 1 mg/kg intravenous
[5] = male, C57BL/6J, plasma, 10 mg/kg oral

`COc1ccc(Cc2cc([C@@H]3O[C@H](SC)[C@@H](O)[C@H](O)[C@H]3O)ccc2Cl)cc1` [LP-925219] gave an IC50 ([1]; no wash protocol) of 2.2 nM, an IC50 ([1]; washout protocol, 18-20 h recovery after 30 min treatment) of 6.8 nM and an IC50 [2] of 2.1 ± 0.5 nM. The AUC(0-inf) [3, 4] was 1.41 ± 0.04 µM·h, the AUC(0-t) [3, 4] was 1.214 ± 0.012 µM·h and the Cmax [3, 4] was 1440 ± 97 nM. The clearance [3, 4] was 29 ± 1 mL/min/kg, the half-life [3, 4] was 2.8 ± 0.7 h and the Vd ([3]; male, C57BL/6J, plasma, 1 mg/kg intravenous, read-out: Vss) was 4.4 ± 0.6 L/kg. The AUC(0-t) [3, 5] was 11.2 µM·h, the Cmax [3, 5] was 3160 ± 802 nM and the Tmax [3, 5] was 0.3 h. The half-life [3, 5] was 7 ± 0.9 h, the bioavailability ([3]; male, C57BL/6J, plasma, 10 mg/kg oral vs 1 mg/kg intravenous, read-out: %F) was 87 ± 21% and the concentration at 6 h ([3]; male, C57BL/6J, plasma, 10 mg/kg oral, 6 h, read-out: plasma level at 6 h postdosing) was 617 ± 107 nM. For the same molecule, the concentration at 24 h ([3]; male, C57BL/6J, plasma, 10 mg/kg oral, 24 h, read-out: plasma level at 24 h post dosing) was 100 ± 43 nM, the bioavailability ([3]; male, C57BL/6J, plasma, 10 mg/kg oral, read-out: bioavailability (%F)) was 87% and the “AUC0-∞” value ([3]; 10 mg/kg oral) was 12,214 ± 3037 nmo/L*h. For the same molecule, the “plasma level at 24 h post dosing” value ([3]; 10 mg/kg oral, 24 h, 10 mg/kg) was 100 nM.
